According to the supplement of paper PMC10307832:

Key:
Test in all cases: relative viability (nuclei count vs DMSO), 5 days (fraction); higher = more cells survive
[1] = system: NCI-H2023
In short: (§1)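 Nuclei were stained with Hoechst during a one-step fixation (final 0.05% Triton X-100, 1% formaldehyde, 1 ug/ml Hoechst) carried out 5 days after dosing, then counted on 4× images. The cells, lung cancer lines in 1536-well plates, had been dosed by pin tool the day after seeding with one drug alone or a fixed anchor-drug dose plus five library-drug doses (not always all listed) in √10 steps. Relative viability is the nuclei count in treated wells divided by that in vehicle wells, and each value is the median of duplicate plates.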

[2] = system: NCI-H1993
In short: as §1

[3] = system: NCI-H2009
In short: as §1

[4] = system: NCI-H2126
In short: as §1

[5] = system: NCI-H2347
In short: as §1

[6] = system: EPLC-272H
In short: as §1

[7] = system: NCI-H647
In short: as §1

[8] = system: EMC-BAC-2
In short: as §1

[9] = system: SK-LU-1
In short: as §1

[10] = system: NCI-H1734
In short: as §1

[11] = system: NCI-H1915
In short: as §1

[12] = system: H3255
In short: as §1

[13] = system: NCI-H2085
In short: as §1

[14] = system: NCI-H322M
In short: as §1

[15] = system: NCI-H727
In short: as §1

[16] = system: SW 1573
In short: as §1

[17] = system: LXF-289
In short: as §1

[18] = system: LCLC-97TM1
In short: as §1

[19] = system: HOP-62
In short: as §1

[20] = system: PC-14
In short: as §1

Nc1ccn([C@@H]2O[C@H](CO)[C@@H](O)[C@@H]2O)c(=O)n1 [Cytarabine] + CC1(C)CCC(c2ccc(Cl)cc2)=C(CN2CCN(c3ccc(C(=O)NS(=O)(=O)c4ccc(N[C@H](CCN5CCOCC5)CSc5ccccc5)c(S(=O)(=O)C(F)(F)F)c4)cc3)CC2)C1 [Navitoclax] (partner 0.5 µM) showed a relative viability ([1]; first compound 0.005 µM) of 0.549, a relative viability ([1]; first compound 0.01581 µM) of 0.356 and a relative viability ([1]; first compound 0.05 µM) of 0.195. The relative viability ([1]; first compound 0.1581 µM) was 0.108, the relative viability ([1]; first compound 0.5 µM) was 0.103 and the relative viability ([2]; first compound 0.005 µM) was 0.92. For the same compound, the relative viability ([2]; first compound 0.01581 µM) was 0.949, the relative viability ([2]; first compound 0.05 µM) was 0.721 and the relative viability ([2]; first compound 0.1581 µM) was 0.548. The relative viability ([2]; first compound 0.5 µM) was 0.624, the relative viability ([3]; first compound 0.005 µM) was 1.13 and the relative viability ([3]; first compound 0.01581 µM) was 1.21. It also gave a relative viability ([3]; first compound 0.05 µM) of 0.99, a relative viability ([3]; first compound 0.1581 µM) of 0.898 and a relative viability ([3]; first compound 0.5 µM) of 0.31. The relative viability ([4]; first compound 0.005 µM) was 0.866, the relative viability ([4]; first compound 0.01581 µM) was 0.705 and the relative viability ([4]; first compound 0.05 µM) was 0.679. For the same compound, the relative viability ([4]; first compound 0.1581 µM) was 0.53, the relative viability ([4]; first compound 0.5 µM) was 0.454 and the relative viability ([5]; first compound 0.005 µM) was 0.911. The relative viability ([5]; first compound 0.01581 µM) was 0.786, the relative viability ([5]; first compound 0.05 µM) was 0.635 and the relative viability ([5]; first compound 0.1581 µM) was 0.531. The relative viability ([5]; first compound 0.5 µM) was 0.449, the relative viability ([6]; first compound 0.005 µM) was 1.01 and the relative viability ([6]; first compound 0.01581 µM) was 0.849. It also gave a relative viability ([6]; first compound 0.05 µM) of 0.842, a relative viability ([6]; first compound 0.1581 µM) of 0.33 and a relative viability ([6]; first compound 0.5 µM) of 0.247. It also gave a relative viability ([7]; first compound 0.005 µM) of 0.73, a relative viability ([7]; first compound 0.01581 µM) of 0.517 and a relative viability ([7]; first compound 0.05 µM) of 0.148. It also gave a relative viability ([7]; first compound 0.1581 µM) of 0.092, a relative viability ([7]; first compound 0.5 µM) of 0.0675 and a relative viability ([8]; first compound 0.005 µM) of 0.843. For the same compound, the relative viability ([8]; first compound 0.01581 µM) was 0.987, the relative viability ([8]; first compound 0.05 µM) was 0.789 and the relative viability ([8]; first compound 0.1581 µM) was 0.243. The relative viability ([8]; first compound 0.5 µM) was 0.19, the relative viability ([9]; first compound 0.005 µM) was 0.775 and the relative viability ([9]; first compound 0.01581 µM) was 0.703. For the same compound, the relative viability ([9]; first compound 0.05 µM) was 0.34, the relative viability ([9]; first compound 0.1581 µM) was 0.266 and the relative viability ([9]; first compound 0.5 µM) was 0.179. It also gave a relative viability ([10]; first compound 0.005 µM) of 0.418, a relative viability ([10]; first compound 0.01581 µM) of 0.322 and a relative viability ([10]; first compound 0.05 µM) of 0.197. The relative viability ([10]; first compound 0.1581 µM) was 0.142, the relative viability ([10]; first compound 0.5 µM) was 0.126 and the relative viability ([11]; first compound 0.005 µM) was 0.799. For the same compound, the relative viability ([11]; first compound 0.01581 µM) was 0.719, the relative viability ([11]; first compound 0.05 µM) was 0.714 and the relative viability ([11]; first compound 0.1581 µM) was 0.411. It also gave a relative viability ([11]; first compound 0.5 µM) of 0.386, a relative viability ([12]; first compound 0.005 µM) of 0.451 and a relative viability ([12]; first compound 0.01581 µM) of 0.506. For the same compound, the relative viability ([12]; first compound 0.05 µM) was 0.411, the relative viability ([12]; first compound 0.1581 µM) was 0.325 and the relative viability ([12]; first compound 0.5 µM) was 0.332. For the same compound, the relative viability ([13]; first compound 0.005 µM) was 1.15, the relative viability ([13]; first compound 0.01581 µM) was 1.08 and the relative viability ([13]; first compound 0.05 µM) was 1.02. The relative viability ([13]; first compound 0.1581 µM) was 0.731, the relative viability ([13]; first compound 0.5 µM) was 0.728 and the relative viability ([14]; first compound 0.005 µM) was 0.846. The relative viability ([14]; first compound 0.01581 µM) was 0.787, the relative viability ([14]; first compound 0.05 µM) was 0.561 and the relative viability ([14]; first compound 0.1581 µM) was 0.46. It also gave a relative viability ([14]; first compound 0.5 µM) of 0.366, a relative viability ([15]; first compound 0.005 µM) of 0.372 and a relative viability ([15]; first compound 0.01581 µM) of 0.295. The relative viability ([15]; first compound 0.05 µM) was 0.238, the relative viability ([15]; first compound 0.1581 µM) was 0.181 and the relative viability ([15]; first compound 0.5 µM) was 0.182. For the same compound, the relative viability ([16]; first compound 0.005 µM) was 0.979, the relative viability ([16]; first compound 0.01581 µM) was 0.79 and the relative viability ([16]; first compound 0.05 µM) was 0.556. It also gave a relative viability ([16]; first compound 0.1581 µM) of 0.223, a relative viability ([16]; first compound 0.5 µM) of 0.103 and a relative viability ([17]; first compound 0.005 µM) of 0.805. It also gave a relative viability ([17]; first compound 0.01581 µM) of 0.944, a relative viability ([17]; first compound 0.05 µM) of 0.564 and a relative viability ([17]; first compound 0.1581 µM) of 0.395. The relative viability ([17]; first compound 0.5 µM) was 0.253, the relative viability ([18]; first compound 0.005 µM) was 0.401 and the relative viability ([18]; first compound 0.01581 µM) was 0.283. It also gave a relative viability ([18]; first compound 0.05 µM) of 0.171, a relative viability ([18]; first compound 0.1581 µM) of 0.107 and a relative viability ([18]; first compound 0.5 µM) of 0.115. The relative viability ([19]; first compound 0.005 µM) was 0.946, the relative viability ([19]; first compound 0.01581 µM) was 0.405 and the relative viability ([19]; first compound 0.05 µM) was 0.342. The relative viability ([19]; first compound 0.1581 µM) was 0.104, the relative viability ([19]; first compound 0.5 µM) was 0.0809 and the relative viability ([20]; first compound 0.005 µM) was 0.918. It also gave a relative viability ([20]; first compound 0.01581 µM) of 1.03, a relative viability ([20]; first compound 0.05 µM) of 0.803 and a relative viability ([20]; first compound 0.1581 µM) of 0.314. For the same compound, the relative viability ([20]; first compound 0.5 µM) was 0.119.
